Among the data in ChEMBL document CHEMBL1938328, “A review on coumarins as acetylcholinesterase inhibitors for Alzheimer's disease” (Bioorg Med Chem, 2012) are IC50 and Ratio IC50 values, retold here.

Counter-ions that a name gives are not always drawn. Some results are limits rather than exact numbers.

Assay [1] concerns the target Acetylcholinesterase (Homo sapiens, UniProt P22303). Description: Inhibition of AChE.
In assay [2] the target is T1, Acetylcholinesterase (Rattus norvegicus, UniProt P37136).
T1 sequence (P37136 whole entry): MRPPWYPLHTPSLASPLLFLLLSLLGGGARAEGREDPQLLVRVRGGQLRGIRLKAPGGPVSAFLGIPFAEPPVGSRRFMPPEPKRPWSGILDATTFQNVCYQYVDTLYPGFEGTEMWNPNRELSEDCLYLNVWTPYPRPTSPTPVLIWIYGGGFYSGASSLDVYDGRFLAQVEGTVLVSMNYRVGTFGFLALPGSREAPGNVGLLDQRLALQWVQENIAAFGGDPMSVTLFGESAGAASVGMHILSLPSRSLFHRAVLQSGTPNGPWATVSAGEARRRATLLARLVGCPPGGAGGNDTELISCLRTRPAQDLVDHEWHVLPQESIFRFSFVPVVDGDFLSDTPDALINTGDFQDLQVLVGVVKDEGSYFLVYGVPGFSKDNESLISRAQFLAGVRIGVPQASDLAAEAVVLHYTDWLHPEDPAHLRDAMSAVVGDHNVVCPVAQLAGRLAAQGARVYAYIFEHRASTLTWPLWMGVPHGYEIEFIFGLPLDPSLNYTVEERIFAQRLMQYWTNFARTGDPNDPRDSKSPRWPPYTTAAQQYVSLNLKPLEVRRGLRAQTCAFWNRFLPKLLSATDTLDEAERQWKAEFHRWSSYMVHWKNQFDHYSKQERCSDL
The assay can be described thus: Inhibition of AChE in rat brain cortical homogenate. It counts as tissue-based.

The nature of assay [3]: Selectivity ratio of IC50 for AChE to IC50 for BChE.

Sequence of Acetylcholinesterase (Homo sapiens, UniProt P22303) (P22303 whole entry): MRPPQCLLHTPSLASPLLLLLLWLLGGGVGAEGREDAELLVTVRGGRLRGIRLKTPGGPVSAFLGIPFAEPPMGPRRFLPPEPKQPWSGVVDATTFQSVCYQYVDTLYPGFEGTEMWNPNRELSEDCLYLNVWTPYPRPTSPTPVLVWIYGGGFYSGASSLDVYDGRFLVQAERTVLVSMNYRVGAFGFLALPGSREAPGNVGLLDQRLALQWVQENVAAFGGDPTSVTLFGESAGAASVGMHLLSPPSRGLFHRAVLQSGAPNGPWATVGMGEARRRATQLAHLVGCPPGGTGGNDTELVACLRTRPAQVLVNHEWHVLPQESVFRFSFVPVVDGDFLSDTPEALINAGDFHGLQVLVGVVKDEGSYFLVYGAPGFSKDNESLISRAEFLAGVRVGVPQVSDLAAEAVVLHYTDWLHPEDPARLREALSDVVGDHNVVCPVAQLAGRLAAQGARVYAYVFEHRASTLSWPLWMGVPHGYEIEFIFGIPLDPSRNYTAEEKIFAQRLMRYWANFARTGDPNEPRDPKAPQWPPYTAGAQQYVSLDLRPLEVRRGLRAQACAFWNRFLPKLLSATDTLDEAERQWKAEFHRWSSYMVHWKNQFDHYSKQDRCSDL

In the case of `COc1ccccc1NCc1cc(=O)oc2cc3oc4ccccc4c3cc12`, the IC50 (usually the concentration that inhibits the measured activity by half) in assay [1] is 190 nM.
With `COc1cc2c(C)c(OC)c(=O)oc2cc1OCCCCOc1cc(O)cc(N(C)C)c1`, in assay [1], 275 nM corresponded to half-maximal inhibition (IC50).
As for `COc1cc2oc(=O)c(C)c(C)c2cc1OCCCN1CCN(c2ccccc2OC)CC1` [ENSACULIN HYDROCHLORIDE], 360 nM corresponded to half-maximal inhibition in assay [2] (IC50). This lies in the sub-micromolar range.
`COc1cc2oc(=O)c(OCCCCOc3cc(O)cc(N(C)C)c3)c(C)c2cc1OC` gave a half-maximal inhibitory concentration (IC50) in assay [1] of 0.236 nM. Besides, the Ratio IC50 in assay [3] is over 300000.
